One may read the melting point as the temperature of the solid-liquid transition. Consider `C=Cc1cc(CNC(=O)C(F)=Cc2ccc(C(C)(C)C)cc2)cc(F)c1NS(C)(=O)=O`, for which the melting point lay within 165 to 167 °C.

With `O=C(O)C(O)C(O)C(=O)NCc1ccc2c(c1)-c1n[nH]c(=O)c3cccc(c13)O2` (configuration not stated), the melting point was 181 to 185 °C. Take `COC(=O)[C@@H]1CCCN1C(=O)Nc1cc(Cl)cc(Cl)c1`: the melting point lay within 110 to 112 °C. Consider `O=C(O)c1cc(S(=O)(=O)NCCc2ccc(Cl)cc2)ccc1Cl`, for which the melting point fell in the range of 176 to 178 °C.

In the case of `CN1C(=S)N(c2ccc(C#N)c(C(F)(F)F)c2)C(=O)C12CCCC2`, the melting point is 162 to 163 °C. Consider `COC1=C(OC)C(=O)C2=C(CC(CCCCCCCCNC(C)=O)C2)C1=O`, for which the melting point lay in the range of 93 to 96 °C. The result for `Cc1nc(Cl)c2nnn(-c3ccc(C(C)C)cc3Br)c2n1` reads 72 to 74 °C.

Turning to `Clc1nc(Cl)nc(N2CCc3ccccc32)n1`, the melting point is 254 to 256 °C. The figure for `OCC(O)(c1ccccc1)C(Cl)c1ccccc1` (configuration not stated) is 108 to 109 °C; for `CCC(NC(=O)NS(=O)(=O)C=Cc1ccccc1)C(=O)O` (configuration not stated) it is 150 to 152 °C. As to `Nc1ccc(C(=O)N2CCCCCC2=O)cc1`, the melting point was 156 to 158 °C. The result for `COc1ccc(CNc2cc(OC)c(OC)c(OC)c2)cc1` reads 77 to 78 °C; that for `CC(C)(C)OC(=O)NCC1CCn2c(cc3ccccc32)C1` (configuration not stated), 80 to 85 °C. The result for `O=C(NCc1ccc(Cl)cc1)c1cn2c3c(cc(CN4CCOCC4)cc3c1=O)OC(c1ccco1)C2` (configuration not stated) reads 220 to 222 °C; that for `CS(=O)(=O)c1ccc(-c2coc(=O)n2-c2ccc(F)cc2)cc1`, 152 to 153 °C. In the case of `CN(C)Cc1cc(-c2ccccc2)c(O)c(-c2ccccc2)c1`, the melting point lay in the range of 136 to 137 °C. For the compound `CCOC(=O)/C=C/c1cccc(-c2ccc(OCC)c(OC)c2)c1`, the melting point is 89 to 91 °C. The result for `Cc1cc(C(F)(C(F)(F)F)C(F)(F)F)ccc1N1C(=O)c2cccc(Cl)c2C1NC(C)(C)CS(C)(=O)=O` (configuration not stated) reads 154 to 156 °C. In the case of `Nc1cc(-c2ccc(Cl)c(Cl)c2)[nH]n1`, the melting point is 169 to 170 °C. `Cc1cc(C(=O)Cl)ccc1[N+](=O)[O-]` gave a melting point of 29 to 30 °C. For the compound `N#C/C(=C\c1cc(O)c(O)c(I)c1)C(=O)NCc1ccccc1`, the melting point turned out to be 220 °C.

`O=C(NCc1ccc(Br)cc1F)c1ccc(Br)cc1[N+](=O)[O-]` returned a melting point of 192 to 193 °C. In turn, `CCNC1(c2ccccc2Cl)C(=O)Nc2ccc(OCC)cc21` (configuration not stated) returned a melting point of 195 to 200 °C. In the case of `CC(=O)Nc1ccc(C(=O)Oc2ccccc2)c(OC(C)=O)c1`, the melting point was 142 to 143 °C. In turn, `CN1Sc2cc3c(cc2CC1=O)CCCC3` displayed a melting point of 202 to 203 °C. The figure for `O=c1c(-c2ccc(Cl)cc2)c[nH]n1-c1ncccn1` is 190 to 191 °C; for `Cc1ccc2c(c1)c(Cl)c(C#N)c(=O)n2Cc1ccccc1` it is 219 °C; for `O=C(O)Cc1cc(Br)c(-c2ccc(Cl)cc2)s1` it is 136 to 137 °C.

`c1ccc(-c2cn([C@H]3CN4CCC3CC4)nn2)cc1` registered a melting point of 132 °C.

For the compound `CCNC(=O)c1cc(N=C=S)ccc1[Si](C)(C)C`, the melting point was in the range of 106 to 108 °C. The compound `O=C1CC(c2ccccc2)c2cccc(O)c21` (configuration not stated) gave a melting point of 80 °C. The compound `COc1ccc(N2CCOCC2)c2sc(NC(=O)N(C)C3CCC(C(F)(F)F)CC3)nc12` (configuration not stated) had a melting point of 157 to 167 °C. Compound `CC(C)(c1ccc(OC#N)cc1)c1ccc(OC#N)cc1` gave a melting point of 82 °C.

As for `N#Cc1ccc(N(Cc2ccc3c(c2)NS(=O)(=O)O3)n2ccnc2)cc1`, the melting point stood at 230 °C.

Consider `CCCCOCCC(C)CCCC(C)(C)c1cc(O)c(C(C)(C)CCCC(C)CCOCCCC)cc1O` (configuration not stated), for which the melting point was in the range of 86 to 89 °C. The compound `CC(=O)c1ccc2c(c1)SC(C)(C)S2` registered a melting point of 75 to 76 °C. As to `CCCCN(Cc1ccc(-c2ccccc2-c2nnn[nH]2)cc1)c1nc(C)ncc1C(=O)OCC`, the melting point was in the range of 164 to 166 °C.
